# Reference: PMC9551036, “A selective and orally bioavailable VHL-recruiting PROTAC achieves SMARCA2 degradation in vivo” (Nature Communications, 2022)
# “And” between values parts separate entries of the source, which are not always exact repeats. Identical values can stand only once. Like-named read-outs stand apart in the source and are kept apart here.
# Assays:
# SMARCA2 = SMARCA2 (Homo sapiens, UniProt P51531); assay: Ex vivo human whole blood assay, SMARCA2; type: cell-based; parameters: endogenous in cells; conditions: for HillSlope (best-fit value) / DC50: four-parameter fit; for Bottom (best-fit value) / Span (best-fit value) / Top (best-fit value): four-parameter fit of % protein remaining; for DC50: read-out: EC50 (best-fit value); for LogEC50 (best-fit value): log10 of concentration (mol/l)
# Description: The assay was performed on human whole blood from three healthy donors, purchased from the Austrian Red Cross who always obtain samples under informed consent. […] Samples were pivoted at room temperature for 18 h in the dark. Subsequently, peripheral blood mononucleated cells (PBMCs) were isolated from individual aliquots using SepMate Tubes (StemCell) and Lymphoprep (StemCell) medium according to the manufacturer’s instructions and protein lysates were prepared using MSD Lysis buffer (Mesocale Discovery) supplemented with 1:100 Halt Phosphatase-Protease Inhibitor Cocktail (Thermo Fisher), 0.5 µl/ml benzonase (Novagen) and 10 mM DTT. SMARCA2 and SMARCA4 protein levels were determined using capillary electrophoresis (Bio-Techne) according to manufacturer’s instructions. Incubation with primary antibodies for SMARCA2 (Cell Signalling #11966 clone D9E8B RRID:AB_2797783 1:25), SMARCA4 (Abcam #ab110641 clone EPNCIR111A RRID:AB_10861578 1:25) and GAPDH (Abcam, #ab9485 RRID:AB_307275 1:1000) were performed for 30 min.
# KRT80 mRNA = assay: qPCR for KRT80 mRNA levels in A549 and NCI-H1568 cells; type: cell-based, human; conditions: for EC50: Homo sapiens
# Description: 350,000–500,000 cells were seeded in 6-well plates and compounds were added the next day at the indicated concentrations after pre-dilution in medium. Cells were incubated for 18 h, harvested, and RNA was extracted using the RNeasy Mini Kit (Qiagen) according to manufacturer’s instructions. A DNAse digestion step was included. 1 µg RNA was used for cDNA synthesis with the SuperScript VILO cDNA synthesis kit (Invitrogen) according to manufacturer’s instructions. TAQMAN qPCR was then performed using the QuantiTect Multiplex PCR kit (Qiagen) with probes for KRT80 (Hs01372365_m1, Applied Biosystems) and human GAPDH as endogenous control (4326317E, VIC/MGB probe, Primer Limited) for normalisation in a duplex assay over 45 cycles with 100 ng cDNA input. […] Curves were fitted using a 4-parametric logistic model.
# SMARCA2, sequence (P51531 whole entry): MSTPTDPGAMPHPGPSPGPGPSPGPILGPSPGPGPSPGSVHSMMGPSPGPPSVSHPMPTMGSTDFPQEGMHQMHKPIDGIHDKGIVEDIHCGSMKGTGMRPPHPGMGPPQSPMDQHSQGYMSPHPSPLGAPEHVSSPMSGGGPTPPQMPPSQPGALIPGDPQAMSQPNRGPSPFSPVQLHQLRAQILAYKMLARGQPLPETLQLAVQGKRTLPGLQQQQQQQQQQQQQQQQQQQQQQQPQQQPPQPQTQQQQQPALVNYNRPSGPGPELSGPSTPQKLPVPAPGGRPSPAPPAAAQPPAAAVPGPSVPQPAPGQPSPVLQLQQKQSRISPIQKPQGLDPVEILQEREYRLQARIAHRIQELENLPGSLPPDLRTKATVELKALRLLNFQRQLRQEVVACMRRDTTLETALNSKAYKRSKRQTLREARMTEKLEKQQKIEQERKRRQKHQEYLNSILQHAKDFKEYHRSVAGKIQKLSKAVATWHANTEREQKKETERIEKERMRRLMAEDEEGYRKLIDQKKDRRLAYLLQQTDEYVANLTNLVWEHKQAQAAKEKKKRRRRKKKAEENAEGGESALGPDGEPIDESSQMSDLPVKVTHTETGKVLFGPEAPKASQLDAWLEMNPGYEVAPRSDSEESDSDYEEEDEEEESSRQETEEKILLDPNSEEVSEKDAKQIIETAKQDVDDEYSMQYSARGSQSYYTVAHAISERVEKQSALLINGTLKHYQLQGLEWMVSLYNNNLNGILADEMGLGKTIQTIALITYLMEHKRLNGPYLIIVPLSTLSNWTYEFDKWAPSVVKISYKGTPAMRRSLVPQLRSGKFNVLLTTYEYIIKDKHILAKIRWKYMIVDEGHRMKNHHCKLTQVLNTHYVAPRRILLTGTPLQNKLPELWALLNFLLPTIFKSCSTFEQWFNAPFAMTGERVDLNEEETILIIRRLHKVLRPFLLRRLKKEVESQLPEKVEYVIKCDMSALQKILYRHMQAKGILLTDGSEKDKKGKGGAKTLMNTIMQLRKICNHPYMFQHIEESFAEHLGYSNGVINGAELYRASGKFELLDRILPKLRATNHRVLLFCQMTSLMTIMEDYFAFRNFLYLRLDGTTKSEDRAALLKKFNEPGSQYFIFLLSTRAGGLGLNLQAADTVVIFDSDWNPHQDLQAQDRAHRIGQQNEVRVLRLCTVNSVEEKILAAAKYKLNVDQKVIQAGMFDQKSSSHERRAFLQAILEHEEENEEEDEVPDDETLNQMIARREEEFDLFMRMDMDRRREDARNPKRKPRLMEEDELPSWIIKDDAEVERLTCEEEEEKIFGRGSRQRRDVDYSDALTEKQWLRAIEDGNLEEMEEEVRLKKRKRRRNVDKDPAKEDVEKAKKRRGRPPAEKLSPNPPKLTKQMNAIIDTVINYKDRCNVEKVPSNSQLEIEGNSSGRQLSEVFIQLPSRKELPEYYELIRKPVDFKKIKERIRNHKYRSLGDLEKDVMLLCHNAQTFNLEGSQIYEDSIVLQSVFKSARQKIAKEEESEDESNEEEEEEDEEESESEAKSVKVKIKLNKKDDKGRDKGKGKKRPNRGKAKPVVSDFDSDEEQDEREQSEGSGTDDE
smiles,measurement,setting,value
Cc1ncsc1-c1ccc(C(CCC(C)CCN2CCC(c3ccc4c(c3)n(C3CCCC3)c3nc(=O)c5c(Br)cccc5n43)CC2)NC(=O)C2CC(O)CN2C(=O)C(NC(=O)C2(F)CC2)C(C)(C)C)cc1 (centres unmarked) [ACBI2],"% protein remaining, SMARCA2","SMARCA2; Donor 1, log10[concentration (mol/l)] -6",7.774% and 7.336% and 6.483%
same,"% protein remaining, SMARCA2","SMARCA2; Donor 1, log10[concentration (mol/l)] -6.47712",27.8553% and 21.8081% and 18.9544%
same,"% protein remaining, SMARCA2","SMARCA2; Donor 1, log10[concentration (mol/l)] -6.95424",43.7755% and 37.877% and 37.8583%
same,"% protein remaining, SMARCA2","SMARCA2; Donor 1, log10[concentration (mol/l)] -7.43136",67.8936% and 57.3294% and 53.6432%
same,"% protein remaining, SMARCA2","SMARCA2; Donor 1, log10[concentration (mol/l)] -7.90848",91.2009% and 93.1862% and 66.2599%
same,"% protein remaining, SMARCA2","SMARCA2; Donor 1, log10[concentration (mol/l)] -8.38561",88.6362% and 87.296% and 66.0015%
same,"% protein remaining, SMARCA2","SMARCA2; Donor 1, log10[concentration (mol/l)] -8.86273",73.7554% and 107.064% and 91.2397%
same,HillSlope (best-fit value),SMARCA2; Donor 1 SMARCA2,-0.8748
same,Bottom (best-fit value),SMARCA2; Donor 1 SMARCA2,-2.012%
same,Span (best-fit value),SMARCA2; Donor 1 SMARCA2,93.51%
same,Top (best-fit value),SMARCA2; Donor 1 SMARCA2,91.5%
same,DC50,SMARCA2; Donor 1 SMARCA2,91.1 nM
same,LogEC50 (best-fit value),SMARCA2; Donor 1 SMARCA2,-7.04
same,"% protein remaining, SMARCA2","SMARCA2; Donor 2, log10[concentration (mol/l)] -6",7.351% and 9.811% and 14.3342%
same,"% protein remaining, SMARCA2","SMARCA2; Donor 2, log10[concentration (mol/l)] -6.47712",29.8249% and 32.3978% and 22.5296%
same,"% protein remaining, SMARCA2","SMARCA2; Donor 2, log10[concentration (mol/l)] -6.95424",46.7755% and 52.5543% and 72.1634%
same,"% protein remaining, SMARCA2","SMARCA2; Donor 2, log10[concentration (mol/l)] -7.43136",100.769% and 75.1426% and 71.9733%
same,"% protein remaining, SMARCA2","SMARCA2; Donor 2, log10[concentration (mol/l)] -7.90848",102.968% and 75.392% and 80.5753%
same,"% protein remaining, SMARCA2","SMARCA2; Donor 2, log10[concentration (mol/l)] -8.38561",67.4421% and 97.2734% and 86.3024%
same,"% protein remaining, SMARCA2","SMARCA2; Donor 2, log10[concentration (mol/l)] -8.86273",85.0643% and 65.7852% and 85.6876%
same,HillSlope (best-fit value),SMARCA2; Donor 2 SMARCA2,-1.742
same,Bottom (best-fit value),SMARCA2; Donor 2 SMARCA2,8.097%
same,Span (best-fit value),SMARCA2; Donor 2 SMARCA2,75.81%
same,Top (best-fit value),SMARCA2; Donor 2 SMARCA2,83.91%
same,DC50,SMARCA2; Donor 2 SMARCA2,172 nM
same,LogEC50 (best-fit value),SMARCA2; Donor 2 SMARCA2,-6.765
same,"% protein remaining, SMARCA2","SMARCA2; Donor 3, log10[concentration (mol/l)] -6",11.0787% and 14.9408% and 20.3816%
same,"% protein remaining, SMARCA2","SMARCA2; Donor 3, log10[concentration (mol/l)] -6.47712",32.5224% and 22.883% and 24.5065%
same,"% protein remaining, SMARCA2","SMARCA2; Donor 3, log10[concentration (mol/l)] -6.95424",43.403% and 45.8346% and 34.6157%
same,"% protein remaining, SMARCA2","SMARCA2; Donor 3, log10[concentration (mol/l)] -7.43136",68.0983% and 70.9906% and 84.1093%
same,"% protein remaining, SMARCA2","SMARCA2; Donor 3, log10[concentration (mol/l)] -7.90848",97.8509% and 97.5546% and 65.5857%
same,"% protein remaining, SMARCA2","SMARCA2; Donor 3, log10[concentration (mol/l)] -8.38561",73.4464% and 119.725% and 73.7076%
same,"% protein remaining, SMARCA2","SMARCA2; Donor 3, log10[concentration (mol/l)] -8.86273",88.433% and 116.976% and 110.86%
same,HillSlope (best-fit value),SMARCA2; Donor 3 SMARCA2,-0.9991
same,Bottom (best-fit value),SMARCA2; Donor 3 SMARCA2,9.358%
same,Span (best-fit value),SMARCA2; Donor 3 SMARCA2,92.07%
same,Top (best-fit value),SMARCA2; Donor 3 SMARCA2,101.4%
same,DC50,SMARCA2; Donor 3 SMARCA2,70.3 nM
same,LogEC50 (best-fit value),SMARCA2; Donor 3 SMARCA2,-7.153
same,SMARCA2 degradation in human whole blood,"SMARCA2; three healthy donors, 18 h",significant degradation of SMARCA2
same,KRT80 mRNA levels,KRT80 mRNA; 18 h treatment,decreased mRNA levels of KRT80
same,"Bottom (% KRT80 mRNA, four-parameter fit)",KRT80 mRNA; A549,1.487%
same,HillSlope (KRT80 mRNA),KRT80 mRNA; A549,-1.195
same,"Top (% KRT80 mRNA, four-parameter fit)",KRT80 mRNA; A549,88.72%
same,% KRT80 mRNA,"KRT80 mRNA; A549, conc 1e-10 mol/l",68.3704%
same,% KRT80 mRNA,"KRT80 mRNA; A549, conc 3.2e-10 mol/l",113.907%
same,% KRT80 mRNA,"KRT80 mRNA; A549, conc 1e-9 mol/l",83.7736%
same,% KRT80 mRNA,"KRT80 mRNA; A549, conc 1.6e-9 mol/l",68.0813%
same,% KRT80 mRNA,"KRT80 mRNA; A549, conc 8e-9 mol/l",32.1733%
same,% KRT80 mRNA,"KRT80 mRNA; A549, conc 1e-8 mol/l",59.5378%
same,% KRT80 mRNA,"KRT80 mRNA; A549, conc 4e-8 mol/l",6.155%
same,% KRT80 mRNA,"KRT80 mRNA; A549, conc 1e-7 mol/l",5.176%
same,% KRT80 mRNA,"KRT80 mRNA; A549, conc 2e-7 mol/l",3.074%
same,% KRT80 mRNA,"KRT80 mRNA; A549, conc 1e-6 mol/l",3.879% and 3.0631%
same,EC50,"KRT80 mRNA; A549, read-out: EC50 (KRT80 mRNA)",8.27 nM
same,EC50,"KRT80 mRNA; A549, read-out: LogEC50 (KRT80 mRNA) (converted)",8.26 nM
same,EC50,"KRT80 mRNA; NCI-H1568, read-out: EC50 (KRT80 mRNA)",9.77 nM
same,EC50,"KRT80 mRNA; NCI-H1568, read-out: LogEC50 (KRT80 mRNA) (converted)",9.77 nM
same,"Bottom (% KRT80 mRNA, four-parameter fit)",KRT80 mRNA; NCI-H1568,16.16%
same,"Top (% KRT80 mRNA, four-parameter fit)",KRT80 mRNA; NCI-H1568,89.57%
same,% KRT80 mRNA,"KRT80 mRNA; NCI-H1568, conc 1e-10 mol/l",84.6925%
same,% KRT80 mRNA,"KRT80 mRNA; NCI-H1568, conc 1.6e-9 mol/l",88.1629%
same,% KRT80 mRNA,"KRT80 mRNA; NCI-H1568, conc 8e-9 mol/l",95.8588%
same,% KRT80 mRNA,"KRT80 mRNA; NCI-H1568, conc 1e-8 mol/l",27.1635%
same,% KRT80 mRNA,"KRT80 mRNA; NCI-H1568, conc 4e-8 mol/l",13.5152%
same,% KRT80 mRNA,"KRT80 mRNA; NCI-H1568, conc 1e-7 mol/l",10.7775%
same,% KRT80 mRNA,"KRT80 mRNA; NCI-H1568, conc 2e-7 mol/l",11.1934%
same,% KRT80 mRNA,"KRT80 mRNA; NCI-H1568, conc 1e-6 mol/l",17.4529% and 27.8788%
